Laboratory results: article doi:10.1101/641969v1 (biorxiv, 2019)

Tests used:
[1] = target: T1, PmCntL (Paenibacillus mucilaginosus, UniProt H6NF62); assay: TLC of products from carboxyl-[…]-labeled SAM; type: biochemical; details: 10 µM D-histidine, 2.5 µM [14C]SAM, pH 9, 28 °C, 30 min
T1 sequence (H6NF62 1-276): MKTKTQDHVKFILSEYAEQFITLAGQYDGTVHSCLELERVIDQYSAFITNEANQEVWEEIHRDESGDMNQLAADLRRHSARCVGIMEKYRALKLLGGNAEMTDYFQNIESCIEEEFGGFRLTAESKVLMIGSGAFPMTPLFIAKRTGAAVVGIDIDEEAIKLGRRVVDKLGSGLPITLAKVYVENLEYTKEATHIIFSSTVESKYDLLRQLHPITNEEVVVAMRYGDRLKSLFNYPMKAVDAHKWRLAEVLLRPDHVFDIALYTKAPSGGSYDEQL

[2] = target: T2, SaCntM (Staphylococcus aureus, UniProt A0A0H3JT80); assay: NADPH oxidation at […] nm, initial rates, Michaelis-Menten fit; type: biochemical; details: 0.2 mM NADPH, 1 mM pyruvate, pH 7, 28 °C
T2 sequence (A0A0H3JT80 1-433): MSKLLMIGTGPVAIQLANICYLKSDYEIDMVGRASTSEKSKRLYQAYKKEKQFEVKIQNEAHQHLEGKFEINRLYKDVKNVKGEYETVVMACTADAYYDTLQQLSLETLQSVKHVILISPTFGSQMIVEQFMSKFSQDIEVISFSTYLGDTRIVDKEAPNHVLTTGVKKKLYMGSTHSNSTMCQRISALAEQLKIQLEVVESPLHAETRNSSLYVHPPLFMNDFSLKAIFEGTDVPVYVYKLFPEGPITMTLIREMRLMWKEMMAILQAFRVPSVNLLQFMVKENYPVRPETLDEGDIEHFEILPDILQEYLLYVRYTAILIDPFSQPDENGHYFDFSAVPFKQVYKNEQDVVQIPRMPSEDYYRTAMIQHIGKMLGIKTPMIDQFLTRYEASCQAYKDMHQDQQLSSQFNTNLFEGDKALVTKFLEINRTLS

[3] = target: T3, PmCntM (Paenibacillus mucilaginosus, UniProt H6NF63); assay: NADPH oxidation at […] nm, initial rates; type: biochemical
T3 sequence (H6NF63 1-440): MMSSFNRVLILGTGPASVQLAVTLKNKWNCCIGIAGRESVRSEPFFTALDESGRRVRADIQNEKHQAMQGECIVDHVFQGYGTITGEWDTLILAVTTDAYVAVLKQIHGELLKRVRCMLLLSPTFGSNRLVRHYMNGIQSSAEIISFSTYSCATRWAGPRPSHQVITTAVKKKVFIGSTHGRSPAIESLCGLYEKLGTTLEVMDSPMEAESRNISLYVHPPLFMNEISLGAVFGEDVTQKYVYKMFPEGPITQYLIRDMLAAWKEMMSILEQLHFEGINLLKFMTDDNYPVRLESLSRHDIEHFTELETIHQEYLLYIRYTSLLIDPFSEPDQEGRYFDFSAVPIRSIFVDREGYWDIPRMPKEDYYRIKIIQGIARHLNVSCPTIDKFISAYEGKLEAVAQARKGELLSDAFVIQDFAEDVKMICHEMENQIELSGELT

[4] = target: T4, PaCntM (Pseudomonas aeruginosa, UniProt Q9HUX5); assay: NADH oxidation at […] nm, initial rates, Michaelis-Menten fit; details: 0.2 mM NADH, 1 mM α-ketoglutarate, pH 8, 28 °C
T4 sequence (Q9HUX5 1-433): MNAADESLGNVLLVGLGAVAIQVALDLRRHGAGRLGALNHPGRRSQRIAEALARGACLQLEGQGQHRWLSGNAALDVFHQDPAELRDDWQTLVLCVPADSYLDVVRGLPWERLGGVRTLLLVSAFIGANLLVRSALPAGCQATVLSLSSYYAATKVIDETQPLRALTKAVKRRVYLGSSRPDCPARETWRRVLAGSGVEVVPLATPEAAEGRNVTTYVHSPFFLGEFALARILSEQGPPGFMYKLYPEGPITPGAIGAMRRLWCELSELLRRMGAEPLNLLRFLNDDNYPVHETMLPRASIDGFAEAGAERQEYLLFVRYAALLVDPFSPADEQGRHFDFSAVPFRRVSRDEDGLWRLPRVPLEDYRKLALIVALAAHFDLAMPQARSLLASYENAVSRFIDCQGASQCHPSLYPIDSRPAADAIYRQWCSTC

[5] = target: T2, SaCntM; assay: NADPH oxidation at […] nm, initial rates, substrate inhibition model; type: biochemical; details: 0.2 mM NADPH, 1 mM pyruvate, pH 7, 28 °C
[6] = target: T4, PaCntM; assay: NADH oxidation at […] nm, initial rates, substrate inhibition model; type: biochemical; details: 0.2 mM NADH, 1 mM α-ketoglutarate, pH 8, 28 °C
[7] = target: T4, PaCntM; assay: as above; type: biochemical; details: 0.2 mM NADH, 1 mM α-ketoglutarate, pH 8, 28 °C; remark: listed apart in the source
[8] = target: T2, SaCntM; assay: NADPH oxidation at […] nm, initial rates, substrate inhibition model; type: biochemical; details: 0.2 mM NADPH, 1 mM pyruvate, pH 7, 28 °C; remark: listed apart in the source

**Q.** For `N[C@H](Cc1c[nH]cn1)C(=O)O` [D-histidine], which “TLC of products from carboxyl-[14C]-labeled SAM” value [1] is on record?
**A.** PmCntL uses D-His and not L-His

**Q.** What does the source list for `N[C@@H](CCN[C@H](Cc1c[nH]cn1)C(=O)O)C(=O)O` [xNA]?
**A.** Km [2]: 23 ± 3 µM; Km [3]: 12 ± 1 µM; Km [4]: 54 ± 20 µM

**Q.** How did the Ki [5] turn out when `N[C@@H](CCN[C@@H](Cc1c[nH]cn1)C(=O)O)C(=O)O` [yNA] was run?
**A.** 2.3 ± 0.8 mM

**Q.** And the Km [6]?
**A.** 21 ± 7 µM

**Q.** What about the Km [3] of the same compound?
**A.** 7 ± 1 µM

**Q.** And the Ki [7]?
**A.** 2.4 ± 1.0 mM

**Q.** And the Km [8]?
**A.** 47 ± 9 µM
